ChEMBL document CHEMBL6078688, “Discovery of Novel MyD88 Inhibitor A5S to Alleviate Acute Lung Injury with Favorable Drug-like Properties” (J Med Chem, 2024)
Calls of active or inactive are those of the source. The calls are words filed in the database; no cut-off is given here.

Key:
J774.A1 [1] = test: Cytotoxicity against mouse J774.A1 cells at 3 to 12 uM by MTT assay; type: toxicity, cell-based; conditions: j774.a1, 12 µM, dose 3-12 µM
J774.A1 [2] = test: Anti-inflammatory activity in LPS-induced mouse J774.A1 cells assessed as inhibition of TNF-alpha production by ELISA; type: functional, cell-based
[3] = biological target: TLR4-MyD88 (Mus musculus) (UniProt Q9QUK6+P22366); test: Inhibition of MYD88/TLR4 protein-protein interaction in LPS-induced mouse J774.A1 cells at 20 uM incubated for 2 hrs by coimmunoprecipitation analysis; type: cell-based
Chain of TLR4-MyD88 (Mus musculus) (P22366 whole entry, looked up, the tested form may be a part): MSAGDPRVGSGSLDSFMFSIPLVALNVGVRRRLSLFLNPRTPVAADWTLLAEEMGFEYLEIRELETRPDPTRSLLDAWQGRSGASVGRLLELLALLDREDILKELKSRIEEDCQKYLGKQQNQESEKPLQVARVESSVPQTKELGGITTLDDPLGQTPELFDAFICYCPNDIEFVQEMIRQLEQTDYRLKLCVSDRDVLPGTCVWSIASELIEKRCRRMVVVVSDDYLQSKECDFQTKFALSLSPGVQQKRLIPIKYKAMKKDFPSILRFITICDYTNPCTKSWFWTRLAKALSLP
Chain of TLR4-MyD88 (Mus musculus) (Q9QUK6 whole entry, looked up, the tested form may be a part): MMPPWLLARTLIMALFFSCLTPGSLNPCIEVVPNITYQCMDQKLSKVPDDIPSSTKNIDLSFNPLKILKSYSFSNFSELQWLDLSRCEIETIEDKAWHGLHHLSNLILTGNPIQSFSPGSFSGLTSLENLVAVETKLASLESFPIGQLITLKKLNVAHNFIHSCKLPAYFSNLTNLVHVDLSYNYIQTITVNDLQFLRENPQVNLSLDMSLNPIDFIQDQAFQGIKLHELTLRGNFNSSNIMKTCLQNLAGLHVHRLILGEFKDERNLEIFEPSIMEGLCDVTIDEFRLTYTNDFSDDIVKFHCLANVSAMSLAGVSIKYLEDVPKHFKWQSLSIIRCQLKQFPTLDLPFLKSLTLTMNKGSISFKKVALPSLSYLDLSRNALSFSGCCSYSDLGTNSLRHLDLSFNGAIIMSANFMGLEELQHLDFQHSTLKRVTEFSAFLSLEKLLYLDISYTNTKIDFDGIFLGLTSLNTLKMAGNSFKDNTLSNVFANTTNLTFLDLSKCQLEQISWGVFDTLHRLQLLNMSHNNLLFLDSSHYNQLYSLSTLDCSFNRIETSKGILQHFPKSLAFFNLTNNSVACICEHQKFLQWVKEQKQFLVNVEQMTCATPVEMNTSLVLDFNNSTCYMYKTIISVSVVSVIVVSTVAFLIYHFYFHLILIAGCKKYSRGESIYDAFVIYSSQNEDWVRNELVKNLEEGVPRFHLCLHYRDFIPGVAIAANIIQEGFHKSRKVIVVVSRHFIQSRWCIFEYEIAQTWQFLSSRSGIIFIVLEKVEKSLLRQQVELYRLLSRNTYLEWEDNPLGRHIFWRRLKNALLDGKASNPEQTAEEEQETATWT

[4] = biological target: T1, Myeloid differentiation primary response protein MyD88 (Homo sapiens, UniProt Q99836); test: Binding affinity to CM5 sensor chip immobilized human MyD88 TIR domain assessed as dissociation constant by SPR analysis
T1 sequence (Q99836 whole entry, the tested form may be a part): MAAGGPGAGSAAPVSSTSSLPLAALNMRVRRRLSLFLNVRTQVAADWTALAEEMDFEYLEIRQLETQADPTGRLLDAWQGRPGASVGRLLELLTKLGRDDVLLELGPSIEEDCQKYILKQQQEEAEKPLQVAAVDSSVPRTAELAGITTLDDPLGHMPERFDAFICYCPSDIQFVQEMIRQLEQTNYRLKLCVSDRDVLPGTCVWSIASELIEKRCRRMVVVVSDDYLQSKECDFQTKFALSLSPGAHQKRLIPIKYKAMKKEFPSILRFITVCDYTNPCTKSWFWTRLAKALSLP

[5] = biological target: T1, Myeloid differentiation primary response protein MyD88; test: Inhibition of FLAG tagged and HA tagged MYD88 (unknown origin) expressed in LPS induced HEK293T cells at 20 uM incubated for 1 hr by coimmunoprecipitation analysis; type: cell-based
J774.A1 [6] = test: Inhibition of MAPK signalling pathway in LPS stimulated mouse J774.A1 cells assessed as downregulation of IRAK4 phosphorylation by Western blotting analysis; type: cell-based
Mus musculus [7] = test: Antiinflammatory activity in cecal ligation and puncture induced sepsis C57BL/6 mouse model assessed as reduction in IL-6 level in serum at 20 mg/kg,po administrated with compound for 6 hrs followed by CLP induction and measured after 12 hrs by ELISA; type: functional, organism-based; conditions: time 18.0 hrs
Mus musculus [8] = test: Antiinflammatory activity in cecal ligation and puncture induced sepsis C57BL/6 mouse model assessed as reduction in IL-6 level in BALF at 20 mg/kg,po administrated with compound for 6 hrs followed by CLP induction and measured after 12 hrs by ELISA; type: functional, organism-based; conditions: time 18.0 hrs
Mus musculus [9] = test: Antiinflammatory activity in cecal ligation and puncture induced sepsis C57BL/6 mouse model assessed as reduction in TNF-alpha level in serum at 20 mg/kg,po administrated with compound for 6 hrs followed by CLP induction and measured after 12 hrs by ELISA; type: functional, organism-based; conditions: time 18.0 hrs
Mus musculus [10] = test: Antiinflammatory activity in cecal ligation and puncture induced sepsis C57BL/6 mouse model assessed as reduction in TNF-alpha mRNA level in lung at 20 mg/kg,po administrated with compound for 6 hrs followed by CLP induction and measured after 12 hrs by RT-PCR analysis; type: functional, organism-based; conditions: time 18.0 hrs
Mus musculus [11] = test: Antiinflammatory activity in cecal ligation and puncture induced sepsis C57BL/6 mouse model assessed as reduction in cell effusion in BALF at 20 mg/kg,po administrated with compound for 6 hrs followed by CLP induction and measured after 12 hrs; type: functional, organism-based; conditions: time 18.0 hrs
Mus musculus [12] = test: Antiinflammatory activity in cecal ligation and puncture induced sepsis C57BL/6 mouse model assessed as reduction in interstitial edema in lung at 20 mg/kg,po administrated with compound for 6 hrs followed by CLP induction and measured after 12 hrs by H and E staining based analysis; type: functional, organism-based; conditions: time 18.0 hrs
Mus musculus [13] = test: Antiinflammatory activity in cecal ligation and puncture induced sepsis C57BL/6 mouse model assessed as reduction in pulmonary congestion in lung at 20 mg/kg,po administrated with compound for 6 hrs followed by CLP induction and measured after 12 hrs by H and E staining based analysis; type: functional, organism-based; conditions: time 18.0 hrs
Mus musculus [14] = test: Antiinflammatory activity in cecal ligation and puncture induced sepsis C57BL/6 mouse model assessed as reduction in inflammatory infiltration in lung at 20 mg/kg,po administrated with compound for 6 hrs followed by CLP induction and measured after 12 hrs by H and E staining based analysis; type: functional, organism-based; conditions: time 18.0 hrs
Mus musculus [15] = test: Antiinflammatory activity in cecal ligation and puncture induced sepsis C57BL/6 mouse model assessed as reduction in neutrophil infiltration in lung at 20 mg/kg,po administrated with compound for 6 hrs followed by CLP induction and measured after 12 hrs by immunohistochemical staining based analysis; type: functional, organism-based; conditions: time 18.0 hrs
Mus musculus [16] = test: Antiinflammatory activity against LPS induced acute lung injury C57BL/6 mouse model assessed as reduction in total protein concentration in BALF at 20 mg/kg,po administrated with compound for 30 mins followed by LPS treatment and measured after 6 hrs; type: functional, organism-based; conditions: time 6.5 hrs
Mus musculus [17] = test: Antiinflammatory activity against LPS induced acute lung injury C57BL/6 mouse model assessed as reduction in total cell count in BALF at 20 mg/kg,po administrated with compound for 30 mins followed by LPS treatment and measured after 6 hrs; type: functional, organism-based; conditions: time 6.5 hrs
Mus musculus [18] = test: Antiinflammatory activity against LPS induced acute lung injury C57BL/6 mouse model assessed as reduction in spleen weight at 20 mg/kg,po administrated with compound for 30 mins followed by LPS treatment and measured after 6 hrs; type: functional, organism-based; conditions: time 6.5 hrs
Mus musculus [19] = test: Antiinflammatory activity against LPS induced acute lung injury C57BL/6 mouse model assessed as reduction in IL-6 level in BALF at 20 mg/kg,po administrated with compound for 30 mins followed by LPS treatment and measured after 6 hrs by ELISA; type: functional, organism-based; conditions: time 6.5 hrs
Mus musculus [20] = test: Antiinflammatory activity against LPS induced acute lung injury C57BL/6 mouse model assessed as reduction in histopathological change in lung at 20 mg/kg,po administrated with compound for 30 mins followed by LPS treatment and measured after 6 hrs by H and E staining based analysis; type: functional, organism-based; conditions: time 6.5 hrs
[21] = Acute toxicity in C57BL/6 mouse assessed as pathological change in heart at 500 mg/kg,po administration measured upto 11 days by hematoxylin and eosin staining based assay; type: organism-based; conditions: in vivo, 264 h, time < 11 day
[22] = Acute toxicity in C57BL/6 mouse assessed as pathological change in liver at 500 mg/kg,po administration measured upto 11 days by hematoxylin and eosin staining based assay; type: organism-based; conditions: in vivo, 264 h, time < 11 day
[23] = Acute toxicity in C57BL/6 mouse assessed as pathological change in lung at 500 mg/kg,po administration measured upto 11 days by hematoxylin and eosin staining based assay; type: organism-based; conditions: in vivo, 264 h, time < 11 day
[24] = Drug concentration in Sprague-Dawley rat serum at 1 mg/kg,iv administration measured upto 24 hrs by LC-MS/MS analysis; type: ADME, organism-based; conditions: read-out: Ct
[25] = AUC (0 to t) in Sprague-Dawley rat at 1 mg/kg,iv administration measured upto 24 hrs by LC-MS/MS analysis; type: ADME, organism-based; conditions: in vivo
[26] = AUC (0 to infinity) in Sprague-Dawley rat at 1 mg/kg,iv administration measured upto 24 hrs by LC-MS/MS analysis; type: ADME, organism-based; conditions: in vivo
[27] = Half life in Sprague-Dawley rat at 1 mg/kg,iv administration measured upto 24 hrs by LC-MS/MS analysis; type: ADME, organism-based; conditions: in vivo
[28] = AUC (0 to infinity) in Sprague-Dawley rat at 20 mg/kg,po administration measured upto 24 hrs by LC-MS/MS analysis; type: ADME, organism-based; conditions: in vivo
[29] = Tmax in Sprague-Dawley rat at 20 mg/kg,po administration measured upto 24 hrs by LC-MS/MS analysis; type: ADME, organism-based; conditions: in vivo
[30] = Half life in Sprague-Dawley rat at 20 mg/kg,po administration measured upto 24 hrs by LC-MS/MS analysis; type: ADME, organism-based; conditions: in vivo
[31] = Oral bioavailability in Sprague-Dawley rat at 20 mg/kg administration measured upto 24 hrs by LC-MS/MS analysis; type: ADME, organism-based; conditions: in vivo
[32] = Stability of compound in simulated intestinal fluid measured upto 12 hrs; type: physicochemical; conditions: simulated gi fluid
[33] = Stability of compound in enzyme free simulated gastric fluid measured upto 12 hrs; type: physicochemical; conditions: simulated gi fluid

SMILES: O[C@H](COc1ccc(Br)cc1)CN1CCN(Cc2cc3ccccc3[nH]2)CC1
- Activity (J774.A1 [1]): Non-toxic
- IC50 (J774.A1 [2]): 3.28 µM
- inhibition [3]: Active
- Kd [4]: 15 µM
- inhibition [5]: Active
- inhibition (J774.A1 [6]): Active
- Activity (Mus musculus [7]): Active
- Activity (Mus musculus [8]): Active
- Activity (Mus musculus [9]): Active
- Activity (Mus musculus [10]): Active
- Activity (Mus musculus [11]): Active
- Activity (Mus musculus [12]): Active
- Activity (Mus musculus [13]): Active
- Activity (Mus musculus [14]): Active
- Activity (Mus musculus [15]): Active
- Activity (Mus musculus [16]): Active
- Activity (Mus musculus [17]): Active
- Activity (Mus musculus [18]): Active
- Activity (Mus musculus [19]): Active
- Activity (Mus musculus [20]): Active
- Activity [21]: Non-toxic
- Activity [22]: Non-toxic
- Activity [23]: Non-toxic
- concentration at 24 h [24]: 1080 ng/mL
- AUC(0-t) at 24 h [25]: 691 ng·h/mL
- AUC(0-inf) [26]: 698 ng·h/mL
- half-life [27]: 1.39 h
- AUC(0-inf) [28]: 3200 ng·h/mL
- Tmax [29]: 3.67 h
- half-life [30]: 4.44 h
- bioavailability [31]: 20.7%
- Stability [32]: Stable
- Stability [33]: Stable
